From US20260327211A1, “MODULATORS OF A POTASSIUM CHANNEL AND OF TRPV1 CHANNEL AND USES THEREOF” (Bsense Bio Therapeutics Ltd., priority 2023, published 2026) come the findings set out here.

Series [1] can be described thus: Log D, 1-octanol/buffer shake flask. Format: physicochemical. As to conditions: pH 7.4. The method, then:
The Log D assay was a miniaturized 1-octanol/buffer shake flask method followed by LC/MS/MS analysis, as follows.
The test compounds or control compounds Nadolol, Chlorpromazine Hydrochloride and Propranolol Hydrochloride were dissolved in 100% DMSO to obtain 10 mM solutions, which were transferred to 96-well polypropylene cluster tubes; 2 μL/well. 1-octanol saturated with 0.1 M phosphate buffer (149 μL/well) and 0.1 M phosphate buffer saturated with 1-octanol (149 μL/well) were added to the tubes, respectively, and each tube was vigorously mixed for 2 minutes and then shaked at a speed of 800 rpm at room temperature for 1 hour, followed by centrifugation at 4000 rpm for 5 minutes at room temperature. Thereafter, for the test compounds and the Chlorpromazine Hydrochloride and Propranolol Hydrochloride, the sample of the buffer layer was diluted by a factor of 50-fold and the sample of 1-octanol layer was diluted by a factor of 2000-fold with internal standard (IS) solution. For Nadolol, the sample of the buffer layer was diluted by a factor of 1000-fold and the sample of 1-octanol layer was diluted by a factor of 400-fold with internal standard (IS) solution. The samples were analyzed using a triple quadrupole mass spectrometer. Peak areas were corrected by dilution factors and embedded internal standard, and the ratio of the corrected peak areas was used to calculate the Log D value. The Log D value for each compound will be calculated by the following equation: […]

Series [2] is described as follows: Human liver microsome metabolic stability. Format: in vitro ADME. As to conditions: for HLM T1/2: 1 µM. From the text: Liver microsomes which are subcellular particles derived from endoplasmic reticulum of hepatic cells were used for evaluating the tested compounds. These particles are rich in drug metabolizing enzymes, including the cytochrome p-450 family. Liver microsomes are a recommended test system for various in vitro drug metabolism and pharmacokinetics (DMPK) studies. CLint values lower than […] are considered suitable for drug development.
Liver Microsome Metabolic Stability Assay (NADPH): The liver microsome stability assay was evaluated through pre-incubation with HLMs. A liver microsome mixture (pooled from multiple donors) at a concentration of 0.5 mg/mL, and the test compound at a concentration of 1 μM, were warmed in the presence of a NADPH regenerating system (about 1.0 mM) at 37° C. Positive controls, including testosterone (a CYP3A4 substrate), propafenone (a CYP2D6 substrate), and diclofenac (a CYP2C9) substrate, were concurrently incubated with the HLMs, in the presence of the NADPH regenerating system (1.0 mM). Samples were extracted during incubation at multiple intervals: 0, 5, 15, 30, 45 and 60 minutes. To terminate the reactions, the samples were promptly mixed with cooled acetonitrile that included an internal standard (IS). An additional compound was incubated with the HLMs in the absence of the NADPH regeneration system, from which a sample was taken at the 60-minute interval.
The clearance of the test compound in the samples was subsequently analyzed by LC-MS/MS based on the peak area ratios of the analyte to the IS.
The following equation was used to calculate the microsome clearance: […]
Liver weight: 40 grams/kg, 30 grams/kg, 32 grams/kg, 20 grams/kg and 88 grams/kg, for rat, monkey, dog, human and mouse, respectively.
A general note: Liver microsomes are vesicles of endoplasmic reticulum, rich in cytochrome P450 enzymes.

In the next series the test system is CYP3A4. Put plainly: CYP inhibition / time-dependent inhibition, CYP3A4_Midazolam. As to conditions: role: inhibitor; substrate midazolam 2.0 μM; CYP TDI ratio. Format: in vitro ADME, human. The method, then: The time-dependent inactivation potency of the test compound to CYP enzymatic activities was assessed by the pre-incubation of the human liver microsomes with the test compound in the presence and absence of NADPH, followed by the incubation with the discrete marker substrates, as follows.
Pre-incubation with human liver microsomes (HLMs): The TDI inactivation potency on CYP enzymatic activities was evaluated through pre-incubation with HLMs (Corning). A liver microsome mixture at a concentration of 0.1 mg/mL, and the test compound at 8 different concentrations (0, 0.05, 0.165, 0.5, 1.65, 5.0, 16.5, or 50.0 μM) was warmed at 37° C. for 10 minutes. Concurrently, a set of known time-dependent inactivators was also prepared in duplicate for comparison. Following this, NADPH (1.0 mM) was added to one group (Group 1), and an equal volume of potassium phosphate buffer to the second group (Group 2), marking the beginning of a 30-minute pre-incubation at 37° C.
Incubation: After pre-incubation, the marker substrate, or marker substrate plus NADPH was added to the mixture, thereby initiating the incubation. The duration of the incubation was dependent on the type of CYP isoform being evaluated. For example, with the CYP3A isoform, the mixture was incubated over 3 minutes utilizing midazolam as the marker substrate (2.0 μM), verapamil as the standard inactivator (3.5 μM).
Termination of Reaction: Following the incubation, ice-cooled acetonitrile containing the internal standard (IS) was added to halt the reactions. Metabolites generated from the marker substrates were then measured via LC-MS/MS, assessed based on peak area ratios of the analyte to IS.

Series [3] is described as follows: Metabolite identification (Met-ID), human hepatocytes. Format: in vitro ADME. As to conditions: human hepatocytes. The method, then: Cell culture and incubation: Cryopreserved hepatocyte cells, from human and rat sources, were purchased from commercial sources or in-house production, and were cultured in Williams' Medium E supplemented with glutamine and HEPES, in a humidified 5% CO2 incubator at 37° C., to a cell density of […]. Then, solutions of test compounds at a concentration of 10 μM, or 7-Ethoxycoumarin, as a positive control, at a concentration of 30 μM, in Eagle's Minimum Essential Medium, Catalog No. 30-2003 (ATCC) supplemented with 20% fetal bovine serum, were introduced and the mixture was incubated for 120 minutes, or other specified time points.
The samples were analyzed for metabolites using an LC-MS method developed on […] and PDA systems. Comparative analyses of mass spectra and ion fragmentation between the parent compound and its metabolites were carried out, and metabolic profiling was determined using the mass spectrometric and/or PDA (UV) response. Hypothetical structures of metabolites and their metabolic pathways were proposed.

A short description of a further series: Rat pharmacokinetics. Format: in vivo. As to conditions: rat, plasma. The procedure: The pharmacokinetic (PK) properties of test compound following single intravenous (IV) bolus and oral gavage (PO) administration in male Sprague-Dawley (SD) rats were determined in this study.
Test compound administration: Six male Sprague Dawley (SD) rats were divided into two designated groups, Group 1 and Group 2, each composed of three rat subjects. Group 1 animals were subjected to a single intravenous bolus administration of the test compound at a dosage of 1 mg/kg. Group 2 animals were administered with the test compound orally in a single dose, at a concentration of 10 mg/kg. Throughout the study, the animals had unhindered access to food. The test compound was administered at a concentration of 0.5 mg/mL and dose volume of 2 mL/kg for Group 1, and at a concentration of 1 mg/mL and dose volume of 10 mL/kg, for Group 2.
Sample extraction and analysis: Plasma samples were systematically collected at varying time points of 0.083 (only for Group 1), 0.25, 0.5, 1, 2, 4-, 6-, 8-, and 24-hours post-dose. LC-MS/MS was used to determine the test compound's concentration within the collected plasma samples. Data reflecting plasma concentration in correlation to time were graphically represented and subjected to a non-compartmental analysis using the Phoenix WinNonlin 6.3 software program. The resulting pharmacokinetic parameters, including Clearance (Cl), Volume of distribution at steady state (Vdss) and initial concentration (C0) for intravenous administration; peak concentration (Cmax), time of peak concentration (Tmax), and bioavailability (% F) for extravascular administration; and half-life (T1/2), Area Under Curve from time zero to time t (AUC(0-t)), Area Under Curve from time zero to infinity (AUC(0-inf)), Mean Residence Time from time zero to time t (MRT(0-t)), Mean Residence Time from time zero to infinity (MRT(0-inf)) for all routes, were systematically calculated.

The subject of the next series is CHO-K1 cells. Put plainly: In vitro micronucleus. Format: cell-based. The settings on record: Plate 3 without S9, 24 hours. The method, then:
The micronucleus assay was performed according to the regulatory guidelines. In brief, CHO-K1 cells were plated at 10000 cells/well in 3 plates and incubated In CHO-K1 growth medium (containing F12K, 10% FBS and 1% PS) overnight.
As a control for the S9 treatment, plate No. 1, cells were treated with cyclophosphamide as a positive control, for 3 hours. For plate No. 2, without S9 treatment, cells were treated with mitomycin C as a positive control, compounds for 3 hours, and for plate No. 3, without S9 treatment, cells were treated with bleomycin sulfate as a positive control continuously for 24 hours.
On the following day, 6 μg/mL of cytochalasin B were added to each well and plates were further incubated overnight. In the day after medium was replaced with a combined 10 μg/mL Hoechst dye solution and 0.5 μM calcein-AM in 100 μL warm DPBS for 30 minutes and the plates were scanned using CQ1 high-content analysis system.

In another series the target is T1, hTRPV1 (Homo sapiens, UniProt Q8NER1).
T1 construct: CDS of NM_080704.4, inserted into the multiple cloning site of pcDNA3.1(+); host or cells: CHO/hKv7.2/3
T1 sequence (Q8NER1 whole entry): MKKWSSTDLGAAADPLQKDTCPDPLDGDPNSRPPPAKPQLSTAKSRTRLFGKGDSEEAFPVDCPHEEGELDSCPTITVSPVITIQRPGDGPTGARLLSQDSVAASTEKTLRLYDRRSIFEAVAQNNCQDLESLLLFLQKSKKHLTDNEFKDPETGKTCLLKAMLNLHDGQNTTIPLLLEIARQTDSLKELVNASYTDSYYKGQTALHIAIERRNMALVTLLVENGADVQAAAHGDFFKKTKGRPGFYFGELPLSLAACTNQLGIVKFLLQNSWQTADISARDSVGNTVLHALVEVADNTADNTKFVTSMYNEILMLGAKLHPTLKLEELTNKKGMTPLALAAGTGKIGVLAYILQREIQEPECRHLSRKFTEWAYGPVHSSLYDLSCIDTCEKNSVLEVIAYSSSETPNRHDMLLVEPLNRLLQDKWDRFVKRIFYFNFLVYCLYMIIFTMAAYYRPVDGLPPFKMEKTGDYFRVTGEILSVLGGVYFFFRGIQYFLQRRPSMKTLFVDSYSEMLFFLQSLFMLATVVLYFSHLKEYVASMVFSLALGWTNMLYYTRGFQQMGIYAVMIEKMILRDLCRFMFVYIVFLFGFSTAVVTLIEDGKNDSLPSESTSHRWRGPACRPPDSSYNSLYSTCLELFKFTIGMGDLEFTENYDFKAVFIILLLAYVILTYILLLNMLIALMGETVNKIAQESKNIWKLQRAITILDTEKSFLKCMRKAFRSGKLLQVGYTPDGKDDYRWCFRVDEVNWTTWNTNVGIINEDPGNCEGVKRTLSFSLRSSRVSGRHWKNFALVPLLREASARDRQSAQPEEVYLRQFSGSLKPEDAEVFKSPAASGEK
Put plainly: hTRPV1 dual activity electrophysiology, CHO cells co-expressing hKv7.2/3 and hTRPV1. Format: cell-based. The settings on record: Kv7.2/3 co-expressed and activated, capsaicin; read-out: Dual hTRPV1 / Dual Expressing CHO, CAP IC50. The method, then:
Cell culture and DNA transfection: CHO/hKv7.2/3 cells were transfected with hTRPV1 DNA constructs (CDS of NM_080704.4, inserted into the multiple cloning site of pcDNA3.1(+) between the Hind III and BamH I restriction site, Genscript). For CHO transfection, 1×10^6 cells were suspended in a reaction mix (Amaxa™ 4D-Nucleofector™-LONZA) containing 5 μg of hTRPV1 DNA and 0.5 μg of GFP DNA (for cells selection) in a cuvette.
The cells were transformed (Amaxa, DT-133 program for CHO transfection with p-3 Kit) and recovered for 10 minutes at RT in the hood. Then cells were re-suspended in a 10 mL antibiotic (Ab)-free medium suspension and were plated on Gelatin or PLL-coated cover glass in different cell densities. On the next morning, the medium was changed to full medium containing the CHO/hKv7.2/3 cell line selection antibiotics.
Extracellular (Bath) solution: The solution was composed of (in mM): NaCl, 140; KCl, 4; CaCl2, 1.8; MgCl2, 1.2; Glucose, 11; HEPES, 5.5. pH was adjusted to 7.3 with NaOH. Osmolarity was adjusted to 310 mOsm with Sucrose.
Intracellular (Pipette) solution: Pipettes were pulled from borosilicate glass (Warner Instrument Corp, USA) with a resistance of 3-7 MΩ and were filled with internal solution composed of (in mM): KCl, 130; MgCl2, 1; K ATP, 5; EGTA, 5; HEPES, 10. pH was adjusted to 7.3 with KOH. Osmolarity was adjusted to 290 mOsm with Sucrose.
A programmable valve-linked pressurized perfusion system was used for local application of compounds nearby the cell recorded in a consistent flow rate of 2-3 mL/minute. Series resistance was corrected and data were sampled at 5 kHz and low pass filtered at 2.4 kHz using MultiClamp 700B amplifier with pCLAMP11 software (Molecular Devices, USA).
At least 48 hours following cell transfection and plating, cells were recorded to assess the TRPV1 dual activity. Membrane potential was held at −90 mV. To measure the inhibitory effects of the tested compounds on hTRPV1 dual activity the following protocol was performed:
Cells were perfused with vehicle-only containing bath solution. After 30 seconds, a single −40 mV 1.5 second step was applied for Kv7.2/3 activation and 30 seconds later capsaicin (1 μM) was applied for 6 seconds to activate the TRPV1.
Cells perfusion was changed to a compound-containing bath solution, and after 2 minutes and 30 seconds of compound application, a single −40 mV 1.5 second step was applied for Kv7.2/3 activation and 30 seconds later capsaicin (1 μM) was applied for 6 seconds to activate the TRPV1.
Cells perfusion was thereafter changed back to vehicle only-containing bath solution. After 30 seconds, a single −40 mV 1.5 step was applied for Kv7.2/3 activation and 30 seconds later capsaicin (1 μM) was applied for 6 seconds to activate the TRPV1 followed by a capsaicin wash out.
The drug current response, when capsaicin was injected following 3 minutes of pre-incubation with the test compound, was divided by the averaged control currents, induced without compound, before compound incubation and following its washout, to evaluate the drug/control response.

Like-named read-outs stand apart in the source and are kept apart here.

What is called logD is lipophilicity at a set pH, counting ionised and neutral species.

`CC1CN(c2cncc(CC(=O)NC3COCC3O)c2)c2c(Cl)cc(Cl)cc21` (mixture of isomers) [Compound 710] displayed a logD in series [1] of 2.88. Moreover, the “HLM T1/2” value in series [2] (human liver microsomes) turned out to be 0.168 h. Also, the “CYP-TDI (midazolam), (−)NADPH/(+)NADPH Ratio CYP3A4” value in the series with CYP3A4 came out at 1.22. Further, the “Human Hepatocytes MetID (glutathione conjugation)” value (shortened to “Human Hepatocytes MetID”) in series [3] is given as “did not indicate the presence of glutathione conjugation”.
Regarding `O=C(Cc1nccc(-n2cc(Cl)c3cc(Cl)cc(Cl)c32)n1)NCCO` [Compound 767], the logD in series [1] (1-octanol/phosphate buffer, read-out: LogD) stood at 3.3. For the same compound, the “HLM and/or Rat PK clearance rates compared to compound 661” value in series [2] is “improved HLM and/or Rat PK clearance rates compared to compound 661”. Also, the half-life at 1 µM in series [2] (human, liver microsomes, human liver microsomes, read-out: HLM T1/2) was determined as 1.03 h. The clearance in “Rat pharmacokinetics” (iv, 1 mg/kg, read-out: PK: Cl) was 42.5 mL/min/kg. The bioavailability in “Rat pharmacokinetics” (po, 10 mg/kg, read-out: PK: Oral BA) came out at 79.7%. Moreover, the “CYP-TDI (midazolam), (−)NADPH/(+)NADPH Ratio CYP3A4” value with CYP3A4 is 1.20. For the same compound, the “Human Hepatocytes MetID” value in series [3] was “did not indicate the presence of glutathione conjugation and None”.
For the compound Bleomycin sulfate [reference compound], the “Micronucleus response Absolute MEC” value in the series with CHO-K1 cells is >28 µM. The CC50 in the series with CHO-K1 cells (read-out: Cytotoxicity (%) Absolute EC50) is 1590 nM.
On to `O=C(Cc1cc(-n2cc(Cl)c3cc(Cl)cc(Cl)c32)ncn1)NCCO` [Compound 851], for which the IC50 at hTRPV1 came out at 1080 nM. In series [1], this compound gave a logD of 3.38. For the same compound, the “HLM and/or Rat PK clearance rates compared to compound 661” value in series [2] was “improved HLM and/or Rat PK clearance rates compared to compound 661”. The “HLM T1/2” value in series [2] (human liver microsomes) worked out at 1.01 h. Also, in series [3], the “Human Hepatocytes MetID” value is recorded as “did not indicate the presence of glutathione conjugation”.
